Test results reported in patent US4134980A, “Phenylalkylamino-alkyl derivatives of quinazolinone and phthalazinone” (Boehringer Ingelheim GmbH, priority 1976, dated 1979).
Counter-ions that a name gives are not always drawn.

Assays:
[1] = tested on: heart rate; experiment: Effect on heart rate in anesthetized dogs (Table II); assay type: in vivo
[2] = tested on: heart rate; experiment: Effect on heart rate in anesthetized cats (Table I); assay type: in vivo
[3] = LD50 in mice, observation time of 14 days; conditions: mouse, in vivo, iv, observation time of 14 days
From the text: Additionally, it should be noted that at all dosage levels the test compounds were tolerated very well and produced no toxic side-effects.

| Structure (SMILES) | Decrease in heart rate ([1]; 0.25 mg/kg i.v.) | Duration of Effective action ([1]; 0.25 mg/kg i.v.) | Decrease in heart rate ([1]; 1.0 mg/kg i.v.) | Duration of Effective action ([1]; 1.0 mg/kg i.v.) | Decrease in heart rate ([2]; 0.5 mg/kg i.v.) | Duration of Effective action ([2]; 0.5 mg/kg i.v.) | Decrease in heart rate ([2]; 1.0 mg/kg i.v.) | Duration of Effective action ([2]; 1.0 mg/kg i.v.) | Decrease in heart rate ([2]; 2.0 mg/kg i.v.) | Duration of Effective action ([2]; 2.0 mg/kg i.v.) | further results |
| --- | --- | --- | --- | --- | --- | --- | --- | --- | --- | --- | --- |
| COc1ccc(CCN(C)CCCn2nc(C)c3cc(OC)c(OC)cc3c2=O)cc1.Cl [B, 1-[4-methyl-6,7-dimethoxy-1(2H)-phthalazinone-2-yl]-3-[N-methyl-N-(2-(4-methoxyphenyl)-ethyl)-amino]-propane hydrochloride] | -6 beats/minute | 24 min | -23 beats/minute | 46 min |  |  |  |  |  |  |  |
| COc1ccc(CCN(C)CCCn2nc(C(C)C)c3cc(OC)c(OC)cc3c2=O)cc1OC [C, 1-[4-isopropyl-6,7-dimethoxy-1(2H)-phthalizinone-2-yl]-3-[N-methyl-N-(2-(3,4-dimethoxyphenyl)-ethyl)-amino]-propane hydrochloride] |  |  | -10 beats/minute | 17 min |  |  |  |  |  |  | Decrease in heart rate ([1]; 2.0 mg/kg i.v.): -29 beats/minute; Duration of Effective action ([1]; 2.0 mg/kg i.v.): 10 min |
| COc1ccc(CCN(C)CCCn2ncc3cc(OC)c(OC)cc3c2=O)cc1.Cl [D, 1-[6,7-dimethoxy-1(2H)-phthalazinone-2-yl]-3-[N-methyl-N-(2-(4-methoxyphenyl)-ethyl)-amino]-propane hydrochloride] |  |  |  |  | -6 beats/minute | 10 min | -13 beats/minute | 25 min | -14 beats/minute | 25 min |  |
| COc1ccc(CCN(C)CCn2nc(C)c3cc(OC)c(OC)cc3c2=O)cc1OC [E, 1-[4-methyl-6,7-dimethoxy-1(2H)-phthalizinone-2-yl]-3-[N-methyl-N-(2-(3,4-dimethoxyphenyl)-ethyl)-amino]-ethane hydrochloride] |  |  |  |  |  |  | -10 beats/minute | 9 min | -13 beats/minute | 10 min |  |
| COc1ccc(CCN(C)CCCn2nc(C)c3cc(OC)c(OC)cc3c2=O)cc1OC.Cl [A, 1-[4-methyl-6,7-dimethoxy-1(2H)-phthalazinone-2-yl]-3-[N-methyl-N-(2-(3,4-dimethoxyphenyl)-ethyl)-amino]-propane hydrochloride] | -10 beats/minute | 17 min | -16 beats/minute | 24 min | -16 beats/minute | > 50 min | -23 beats/minute | > 70 min | -37 beats/minute | > 70 min | Decrease in heart rate ([2]; 2.0 mg/kg i.d.): -25 beats/minute; Duration of Effective action ([2]; 2.0 mg/kg i.d.): > 74 min; Decrease in heart rate ([2]; 4.0 mg/kg i.d.): -34 beats/minute; Duration of Effective action ([2]; 4.0 mg/kg i.d.): > 60 min; Decrease in heart rate ([2]; 10.0 mg/kg i.d.): -41 beats/minute; Duration of Effective action ([2]; 10.0 mg/kg i.d.): > 50 min; Decrease in heart rate ([1]; 0.5 mg/kg i.v.): -12 beats/minute; Duration of Effective action ([1]; 0.5 mg/kg i.v.): 15 min; LD50 at 336 h [3]: 63 mg/kg |
